Laboratory results taken from patent US20060240048A1 (priority 2002, published 2006).

Target: T1, human cannabinoid CB2 receptor (Homo sapiens, UniProt P34972)
T1 construct: expressed in transfected cells; host or cells: Saccharomyces cerevisiae strain MMY23
Experiment: Cannabinoid CB2 receptor agonist activity, yeast reporter assay (FDGlu fluorescence);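 for Emax: 100% equals maximal response of reference agonist HU210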
Type: cell-based
Conditions: for Emax: read-out: efficacy value (Emax) at the cloned human cannabinoid CB2 receptor
Description: The cannabinoid CB2 receptor agonist activity of the compounds of formula (I) was determined in accordance with the following experimental method.
Yeast (Saccharomyces cerevisiae) cells expressing the human cannabinoid CB2 receptor were generated by integration of an expression cassette into the ura3 chromosomal locus of yeast strain MMY23. This cassette consisted of DNA sequence encoding the human CB2 receptor flanked by the yeast GPD promoter to the 5′ end of CB2 and a yeast transcriptional terminator sequence to the 3′ end of CB2. MMY23 expresses a yeast/mammalian chimeric G-protein alpha subunit in which the C-terminal 5 amino acids of Gpa1 are replaced with the C-terminal 5 amino acids of human Gαi3 (as described in Brown et al. (2000), Yeast 16:11-22). Cells were grown at 30° C. in liquid Synthetic Complete (SC) yeast media (Guthrie and Fink (1991), Methods in Enzymology, Vol. 194) lacking uracil, tryptophan, adenine and leucine to late logarithmic phase (approximately 6 OD600/ml).
Agonists were prepared as 10 mM stocks in DMSO. […] Agonist solutions in DMSO (1% final assay volume) were transferred into black, clear bottom, microtitre plates from NUNC (96- or 384-well). […] This mixture (50 ul per well for 384-well plates, 200 ul per well for 96-well plates) was added to agonist in the assay plates (Multidrop 384, Labsystems). After incubation at 30° C. for 24 hours, fluorescence resulting from degradation of FDGlu to fluorescein due to exoglucanase, an endogenous yeast enzyme produced during agonist-stimulated cell growth, was determined using a Spectrofluor microtitre plate reader (Tecan; excitation wavelength: 485 nm; emission wavelength: 535 nm). Fluorescence was plotted against compound concentration and iteratively curve fitted using a four parameter fit to generate a concentration effect value.
where Max[compound X] and Min[compound X] are the fitted maximum and minimum respectively from the concentration effect curve for compound X, and Max[HU210] and Min[HU210] are the fitted maximum and minimum respectively from the concentration effect curve for (6aR,10aR)-3-(1,1′-Dimethylheptyl)-6a,7,10,10a-tetrahydro-1-hydroxy-6,6-dimethyl-6H-dibenzo[b,d]pyran-9-methanol (HU210; available from Tocris). Equieffective molar ratio (EMR) values were calculated from the equation EMR=EC50 [compound X]/EC50 [HU210]
Where EC50 [compound X] is the EC50 of compound X and EC50 [HU210] is the EC50 of HU210.

T1 sequence (P34972 whole entry): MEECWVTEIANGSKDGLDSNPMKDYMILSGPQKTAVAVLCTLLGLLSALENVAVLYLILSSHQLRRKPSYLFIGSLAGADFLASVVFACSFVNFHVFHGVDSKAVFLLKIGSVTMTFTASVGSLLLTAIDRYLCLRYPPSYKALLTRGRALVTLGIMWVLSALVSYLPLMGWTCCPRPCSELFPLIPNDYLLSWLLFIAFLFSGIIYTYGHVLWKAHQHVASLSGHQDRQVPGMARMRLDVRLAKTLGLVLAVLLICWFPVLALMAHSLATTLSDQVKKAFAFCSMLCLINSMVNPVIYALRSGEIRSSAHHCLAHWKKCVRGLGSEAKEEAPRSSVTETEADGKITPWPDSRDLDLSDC

Row | SMILES | EC50 [nM] | Emax [%]
1 | CC(C)c1nc(Nc2cccc(Cl)c2)ccc1C(=O)NCC1CCS(=O)(=O)C1 (centres unmarked) [Example 209, 6-(3-Chloro-phenylamino)-N-(1,1-dioxo-tetrahydrothiophen-3-ylmethyl)-2-isopropyl-nicotinamide] | < 300 | > 50
2 | O=C(NCC1CCS(=O)(=O)C1)c1cnc(Nc2cccc(F)c2)cc1C(F)(F)F (centres unmarked) [Example 133, N-(1,1-Dioxo-tetrahydro-thiophen-3-ylmethyl)-6-(3-fluoro-phenylamino)-4-trifluoromethyl-nicotinamide] | < 300 | > 50
3 | CC(C)CNC(=O)c1cnc(Nc2cccc(C(F)(F)F)c2)cc1C(C)C [Example 269, N-Isobutyl-4-isopropyl-6-(3-trifluoromethyl-phenylamlno)-nicotinamide] | < 300 | > 50
4 | O=C(NCC1CCCCCC1)c1cnc(Nc2cc(Cl)cc(Cl)c2)cc1C(F)(F)F [Example 175, N-Cycloheptylmethyl-6-(3,5-dichloro-phenyiamino)-4-trifluoromethyl-nicotinamide] |  | > 50
5 | O=C(NC1CCC1)c1cnc(Nc2cccc(Br)c2)cc1C(F)(F)F [Example 119, N-Cyclobutyl-6-(3-bromo-phenylamino)-4-trifluoro-methyl-nicotinamide] | < 300 | > 50
6 | CC(C)c1cc(Nc2cc(F)cc(F)c2)ncc1C(=O)NCC1CCC1 [Example 265, N-Cyclobutylmethyl-6-(3,5-difluoro-phenylamino)-4-isopropyl-nicotinamide] | < 300 | > 50
7 | COc1cccc(Nc2cc(C(C)C)c(C(=O)NCC3CCCCC3)cn2)c1 [Example 9, N-Cyclohexylmethyl-4-isopropyl-6-(3-methoxy-phenylamino)-nicotinamide] | < 300 | > 50
8 | CC(C)c1cc(Nc2ccc(Br)c(F)c2)ncc1C(=O)NCC1CCS(=O)(=O)C1 (centres unmarked) [Example 279, 6-(4-Bromo-3-fluoro-phenylamino)-N-(1,1-dioxo-tetrahydro-1/^6-thiophen-3-ylmethyl)-4-isopropyl-nicotinamide] | < 300 | > 50
9 | Cc1cc(Cl)ccc1Nc1cc(C(C)C)c(C(=O)NCC2CCCC2)cn1 [Example 246, 6-(2-Methyl-4-chloro-phenylamino)-N-cyclopentylmethyl-4-isopropyl-nicotinamide] | < 300 | > 50
10 | CC(C)CNC(=O)c1cnc(Nc2cccc(F)c2)cc1C(F)(F)F [Example 131, N-Isobutyl-6-(3-fluoro-phenylamino)-4-trifluoro-methyl-nicotinamide] | < 300 | > 50
11 | CC(C)c1cc(Nc2cccc(Cl)c2)ncc1C(=O)NCC1CC1 [Example 51, 6-(3-Chloro-phenylamino)-N-cyclopropylmethyl-4-isopropyl-nicotinamide] | < 300 | > 50
12 | CC(C)c1cc(Nc2cccc(Cl)c2)ncc1C(=O)NCC1CCOCC1 [Example 7, 6-(3-Chloro-phenyl-amino)-4-isopropyl-N-(tetrahydro-pyran-4-ylmethyl)-nicotinamide] |  | > 50
13 | CC(C)c1cc(Nc2ccc(Cl)cc2Cl)ncc1C(=O)NCC1CCCCC1 [Example 5, N-Cyclohexylmethyl-6-(2,4-dichloro-phenylamino)-4-isopropyl-nicotinamide] | < 300 | > 50
14 | O=C(NCC1CCCCC1)c1cnc(Nc2ccc(Cl)cc2Cl)cc1C(F)(F)F [Example 138, N-Cyclohexylmethyl-6-(2,4-dichloro-phenylamino)-4-tri-fluoromethyl-nicotinamide] | < 300 | > 50
15 | O=C(NCC1CCCC1)c1cnc(Nc2cccc(Br)c2)cc1C(F)(F)F [Example 122, N-Cyclopentylmethyl-6-(3-bromo-phenylamino)-4-tri-fluoromethyl-nicotinamide] | < 300 | > 50
16 | CC(C)c1nc(Nc2ccc(Cl)cc2Cl)ccc1C(=O)NCC1CCS(=O)(=O)C1 (centres unmarked) [Example 215, 6-(2,4-Dichloro-phenylamino)-N-(1,1-tetrahydrothiophen-3-ylmethyl)-2-isopropyl-nicotinamide] | < 300 | > 50
17 | COc1ccc(Cl)cc1Nc1cc(C(F)(F)F)c(C(=O)NCC2CCC2)cn1 [Example 169, N-Cyclobutylmethyl-6-(2-methoxy-5-chloro-phenyl-amino)-4-trifluoromethyl-nicotinamide] |  | > 50

Row | SMILES | EC50 [nM] | Emax [%]
18 | CC(C)CNC(=O)c1cnc(Nc2ccc(Cl)c(Cl)c2)cc1C(F)(F)F [Example 153, N-Isobutyl-6-(3,4-dichloro-phenylamino)-4-trifluoro-methyl-nicotinamide] | < 300 | > 50
19 | CC(C)c1nc(Nc2ccc(Cl)cc2Cl)ccc1C(=O)NCC1CCOCC1 [Example 214, 6-(2,4-Dichloro-phenylamino)-N-(tetrahydro-pyran-4-ylmethyl)-2-isopropyl-nicotinamide] | < 300 | > 50
20 | CC(C)c1cc(Nc2ccc(C#N)c(Cl)c2)ncc1C(=O)NCC1CCOCC1 [Example 79, 6-(3-Chloro-4-cyano-phenylamino)-4-isopropyl-N-(tetrahydro-pyran-4-ylmethyl) nicotinamide] |  | > 50
21 | O=C(NCC1CCCCC1)c1cnc(Nc2ccccc2)cc1C(F)(F)F [Example 107, N-Cyclohexylmethyl-6-phenylamino-4-trifluoro-methyl-nicotinamide] | < 300 | > 50
22 | CC(C)c1nc(Nc2cccc(F)c2)ccc1C(=O)NCC1CCS(=O)(=O)C1 (centres unmarked) [Example 219, 6-(3-Fluoro-phenylamino)-N-(1,1-dioxo-tetrahydrothiophen-3-ylmethyl)-2-isopropyl-nicotinamide] | < 300 | > 50
23 | O=C(NCC1CCCCCC1)c1cnc(Nc2cccc(F)c2)cc1C(F)(F)F [Example 125, N-Cycloheptylmethyl-6-(3-fluoro-phenylamino)-4-tri-fluoromethyl-nicotinamide] | < 300 | > 50
24 | CC(C)c1cc(Nc2cccc(Cl)c2Cl)ncc1C(=O)NCC1CCOCC1 [Example 16, 6-(2,3-Dichloro-phenylamino)-4-isopropyl-N-(tetrahydro-pyran-4-ylmethyl)-nicotinamide] | < 300 | > 50
25 | Cc1c(Cl)cccc1Nc1cc(C(C)C)c(C(=O)NCC2CCOCC2)cn1 [Example 241, 6-(3-Chloro-2-methyl-phenylamino)-4-isopropyl-N-(tetrahydro-pyran-4-ylmethyl)-nicotinamide] | < 300 | > 50
26 | O=C(NCC1CCCC1)c1cnc(Nc2ccc(F)cc2F)cc1C(F)(F)F [Example 167, N-Cyclopentylmethyl-6-(2,4-difluoro-phenylamino)-4-tri-fluoromethyl-nicotinamide] | < 300 | > 50
27 | CC(C)c1cc(Nc2ccc(C#N)cc2F)ncc1C(=O)NCC1CCC1 [Example 260, 6-(4-Cyano-2-fluoro-phenylamino)-N-cyclobutylmethyl-4-isopropyl-nicotinamide] | < 300 | > 50
28 | O=C(NCC1CCCCC1)c1cnc(Nc2cc(Cl)cc(Cl)c2)cc1C(F)(F)F [Example 146, N-Cyclohexylmethyl-6-(3,5-dichloro-phenytamino)-4-tri-fluoromethyl-nicotinamide] | < 300 | > 50
29 | Cc1cc(C#N)ccc1Nc1cc(C(C)C)c(C(=O)NCC2CCOCC2)cn1 [Example 220, 6-(4-Cyano-2-methyl-phenylamino)-4-isopropyl-N-(tetrahydro-pyran-4-ylmethyl)-nicotinamide] | < 300 | > 50
30 | CC(C)c1cc(Nc2ccc(C#N)cc2Cl)ncc1C(=O)NCC1CCCC1 [Example 30, 6-(2-Chloro-4-cyano-phenylamino)-N-cyclopentylmethyl-4-isopropyl-nicotinamide] | < 300 | > 50
31 | O=C(NC1CCC1)c1cnc(Nc2cccc(Cl)c2Cl)cc1C(F)(F)F [Example 104, 6-(2,3-Dichloro-phenylamino)-N-(cyclobutyl)-4-trifluoromethyl-nicotinamide] | < 300 | > 50
32 | CC(C)c1cc(Nc2cccc(C(F)(F)F)c2F)ncc1C(=O)NCC1CCC1 [Example 257, N-cyclobutylmethyl-6-(2-fluoro-3-trifluoromethyl-phenylamino)-4-isopropyl-nicotinamide] | < 300 | > 50
33 | CC(C)c1cc(Nc2ccc(Cl)c(Cl)c2)ncc1C(=O)NCC1CCCCC1 [Example 3, N-Cyclohexylmethyl-6-(3,4-dichloro-phenylamino)-4-isopropyl-nicotinamide] | < 300 | > 50
